Test results: patent US11548903B2, “Bicyclic thiazine and oxazine derivatives as beta-secretase inhibitors and methods of use” (AMGEN INC., priority 2016, dated 2023)
Where two headings read alike, the source gives them in different places.

Columns and labels:
[1] = target: Recombinant CatD (Homo sapiens (Human), UniProt P07339); test: In vitro enzymatic Cathepsin D (CatD) FRET assay; assay type: biochemical; details: read-out: Cat D Enzyme IC50
Procedure, shortened: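 Recombinant human CatD, expressed in CHO cells, was run in 0.05 M citrate pH 3.5 with 10% DMSO final and 5 mM CHAPS. Reactions were started with 20 nM quenched FRET peptide and incubated 1 h. Tris buffer was added to neutralize the pH before reading fluorescence at ex 500/em 580 nm.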

[2] = target: human recombinant BACE1 (Homo sapiens (Human), UniProt P56817); test: In vitro enzymatic BACE1 FRET assay; assay type: biochemical; details: read-out: BACE1 Enzyme IC50
Sequence of human recombinant BACE1 (P56817 46-501): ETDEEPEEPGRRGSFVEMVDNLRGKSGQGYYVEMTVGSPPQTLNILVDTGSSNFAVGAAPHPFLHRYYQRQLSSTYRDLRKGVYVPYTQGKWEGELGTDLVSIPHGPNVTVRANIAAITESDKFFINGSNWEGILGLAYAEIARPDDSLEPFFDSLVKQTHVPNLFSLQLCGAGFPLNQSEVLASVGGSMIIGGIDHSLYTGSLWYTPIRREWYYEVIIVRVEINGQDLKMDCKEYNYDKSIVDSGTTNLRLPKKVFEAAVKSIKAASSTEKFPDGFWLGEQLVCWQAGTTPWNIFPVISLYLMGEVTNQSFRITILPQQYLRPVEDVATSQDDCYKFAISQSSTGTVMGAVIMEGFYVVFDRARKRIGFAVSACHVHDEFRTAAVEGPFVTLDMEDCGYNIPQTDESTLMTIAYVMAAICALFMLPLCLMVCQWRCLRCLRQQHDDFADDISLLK
Procedure, shortened: (§1)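 Ni-NTA-purified recombinant human BACE1 or BACE2 cleaved a 50 nM internally quenched peptide FRET substrate for one hour. Reactions were stopped with tris buffer raising pH to neutrality. Fluorescence was read at ex 488/em 590 nm.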

[3] = tested on: BACE1 (Aβ40 from cells stably expressing Amyloid Precursor Protein); test: In vitro BACE1 cell-based assay (Aβ40 in conditioned medium, HTRF)
Procedure, shortened: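 APP-stably expressing cells treated with compounds in 22-point dose response from 62.5 μM top concentration (0.625% final DMSO) for 24 h at 37° C in DMEM/10% FBS. Secreted Aβ40 in conditioned medium quantified by HTRF using ConfAb40 and biotinylated 6E10 with streptavidin-APC, 30-60 min at 23° C.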

[4] = target: human recombinant BACE2 (Homo sapiens (Human), UniProt Q9Y5Z0); test: In vitro enzymatic BACE2 FRET assay; assay type: biochemical; details: read-out: BACE2 Enzyme IC50
Sequence of human recombinant BACE2 (Q9Y5Z0 63-518): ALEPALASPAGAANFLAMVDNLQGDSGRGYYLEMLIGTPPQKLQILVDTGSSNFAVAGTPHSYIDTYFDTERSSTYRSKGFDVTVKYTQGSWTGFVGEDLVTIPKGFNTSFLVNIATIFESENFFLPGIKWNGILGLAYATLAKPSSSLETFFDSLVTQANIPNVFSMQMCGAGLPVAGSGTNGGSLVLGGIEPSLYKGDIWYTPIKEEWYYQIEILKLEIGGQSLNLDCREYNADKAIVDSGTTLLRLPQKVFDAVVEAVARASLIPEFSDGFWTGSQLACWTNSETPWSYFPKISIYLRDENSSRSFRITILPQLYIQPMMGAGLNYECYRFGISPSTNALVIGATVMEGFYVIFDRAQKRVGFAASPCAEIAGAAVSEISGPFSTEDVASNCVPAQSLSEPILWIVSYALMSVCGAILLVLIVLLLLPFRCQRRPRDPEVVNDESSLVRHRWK
Procedure, shortened: as §1

[5] = tested on: β-secretase (Aβ peptide levels); test: In vivo inhibition of β-secretase (Aβ reduction in rat CSF and brain)
Text: In vivo Inhibition of β-Secretase
Several animal models, including mouse, rat, dog, and monkey, may be used to screen for inhibition of β-secretase activity in vivo following administration of a test compound. […] Animals to be used in this experiment can be wild type, transgenic, or gene knockout animals. For example, the Tg2576 mouse model, prepared and conducted as described in Hsiao et al., Science 274:99-102 (1996), and other non-transgenic or gene knockout animals are useful to analyze in vivo inhibition of Aβ peptide production in the presence of test compounds.
Generally, 2 to 18 month old Tg2576 mice, gene knockout mice or non-transgenic animals are administered test compounds formulated in vehicles, such as cyclodextran, phosphate buffers, hydroxypropyl methylcellulose or other suitable vehicles. One to twenty-four hours following the administration of compound, animals are sacrificed, and brains as well as cerebrospinal fluid (CSF) and plasma are removed for analysis of Aβ levels and test compound concentrations (Dovey et al., J. Neurochem., 76(1):173-181 (2001)) Beginning at time 0, animals are administered by oral gavage, or other means of delivery such as intravenous injection, an inhibitory test compound of up to 100 mg/kg in a standard, conventional formulation, such as 2% hydroxypropyl methylcellulose, 1% Tween80. A separate group of animals receive 2% hydroxypropyl methylcellulose, 1% Tween80 alone, containing no test compound, and serve as a vehicle-control group. At the end of the test period, animals are sacrificed and brain tissues, plasma or cerebrospinal fluid are collected. Brains are either homogenized in 10 volumes (w/v) of 0.2% diethylamine (DEA) in 50 mM NaCl (Best et al., J. Pharmacol. Exp. Ther. 313(2):902-908 (2005)), or in 10 volumes of 0.5% TritonX-100 in Tris-buffered saline (pH at about 7.6). Homogenates are centrifuged at 355,000 g, 4° C. for 30 minutes. CSF or brain supernatants are then analyzed for the presence of Aβ by specific sandwich ELISA assays based on ECL (Electrochemiluminescence) technology. For example, rat Aβ40 is measured using biotinylated-4G8 (Signet) as a capture antibody and Fab40 (an in-house antibody specific to the C-terminal of Aβ40) as a detection antibody. For example, 4 hours after administration of 30 mg/kg oral dose of the test compound in 2% hydroxypropyl methylcellulose, 1% Tween80 (pH2.2) to 200 g male Sprague Dawley rats, Aβ peptide levels are measured for reduction by X % and Y % in cerebrospinal fluid and brain, respectively, when compared to the levels measured in the vehicle-treated or control mice. Alternatively, the antibody sold with the V-PLEX abeta40 Peptide (4G8) Kit, commercially available from Meso Scale Diagnostics (MSD), Rockville, Md. 20850-3173 (Catalog NO. K150SJE-1) may be used in this assay.
The results presented in Table 3 were obtained using certain compounds described herein in the in vivo protocol described above.

[6] = Aβ40, 24 h incubation, read-out: BACE1 Cell IC50
[7] = 24 h, read-out: BACE1 Cell IC50 (μM)

Sequence of Recombinant CatD (P07339 65-412): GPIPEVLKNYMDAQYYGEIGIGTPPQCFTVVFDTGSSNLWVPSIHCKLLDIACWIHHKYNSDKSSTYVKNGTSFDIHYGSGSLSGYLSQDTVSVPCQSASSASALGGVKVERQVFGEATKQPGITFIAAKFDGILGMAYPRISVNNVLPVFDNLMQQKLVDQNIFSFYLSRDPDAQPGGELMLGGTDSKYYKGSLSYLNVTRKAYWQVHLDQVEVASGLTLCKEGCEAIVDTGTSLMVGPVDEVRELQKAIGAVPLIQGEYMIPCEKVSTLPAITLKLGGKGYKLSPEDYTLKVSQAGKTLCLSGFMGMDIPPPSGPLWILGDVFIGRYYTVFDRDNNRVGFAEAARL

IC50 [1] [µM]	IC50 [2] [nM]	IC50 [3, 6] [µM]	IC50 [4] [nM]	Structure (SMILES)	IC50 [3, 7] [µM]	% Aβ reduction in rat CSF at 10 mpk [5] [%]	% Aβ reduction in rat brain at 10 mpk [5] [%]
95.6	9010	53.5	140000	N#Cc1ccc(/C(F)=C/c2ccc(F)c([C@@]34CO[C@@H](C(F)(F)F)[C@@H]3COC(N)=N4)c2)nc1 (single isomer, unassigned) [Example 143]	–	–	–
292	20.1	0.00574	334	N#Cc1ccc(/C(F)=C/c2ccc(F)c([C@]34CO[C@H](C(F)(F)F)[C@H]3CSC(N)=N4)c2)nc1 [Example 126, 6-((Z)-2-(3-((4aS,5S,7aS)-2-amino-5-(trifluoromethyl)-4a,5,7,7a-tetrahydro-4H-furo[3,4-d][1,3]thiazin-7a-yl)-4-fluorophenyl)-1-fluorovinyl)nicotinonitrile]	–	83	80
7.6	0.149	0.000311	5.49	C#CCOc1cnc(/C(F)=C/c2ccc(F)c([C@]34CN(c5ncc(F)cn5)C[C@H]3CSC(N)=N4)c2)cn1 (stereo in doubt) [Example 109, (4aR,7aS)-7a-(2-fluoro-5-((Z)-2-fluoro-2-(5-(prop-2-yn-1-yloxy)pyrazin-2-yl)vinyl)phenyl)-6-(5-fluoropyrimidin-2-yl)-4,4a,5,6,7,7a-hexahydropyrrolo[3,4-d][1,3]thiazin-2-amine]	–	–	–
> 400	48.5	0.041	1400	N#Cc1ccc(/C(F)=C/c2ccc(F)c([C@@]34CO[C@@H](C(F)F)[C@@H]3CSC(N)=N4)c2)nc1 [Example 145, 6-((Z)-2-(3-((4aR,5R,7aR)-2-Amino-5-(difluoromethyl)-4a,5-dihydro-4H-furo[3,4-d][1,3]thiazin-7a(7H)-yl)-4-fluorophenyl)-1-fluorovinyl)nicotinonitrile]	–	–	–
181	64.4	0.129	56.9	NC1=N[C@@]2(c3cc(/C=C(\F)c4ccc(Cl)cn4)ccc3F)COC[C@H]2CS1 [Example 105, (4aS,7aS)-7a-(5-((Z)-2-(5-chloropyridin-2-yl)-2-fluorovinyl)-2-fluorophenyl)-4a,5,7,7a-tetrahydro-4H-furo[3,4-d][1,3]thiazin-2-amine]	–	–	–
59.3	1.4	0.0009	4.3	COc1nc(N2C[C@H]3CSC(N)=N[C@@]3(c3cc(/C=C(\F)c4ccc(C#N)cn4)ccc3F)C2)ncc1F [Example 134, 6-((Z)-2-(3-((4aR,7aS)-2-amino-6-(5-fluoro-4-methoxypyrimidin-2-yl)-4,4a,5,6,7,7a-hexahydropyrrolo[3,4-d][1,3]thiazin-7a-yl)-4-fluorophenyl)-1-fluorovinyl)nicotinonitrile]	–	–	–
30.6	2540	1.39	18000	N#Cc1ccc(/C(F)=C/c2ccc(F)c([C@@]34CO[C@@H](C(F)(F)F)[C@@H]3CSC(N)=N4)c2)nc1 [Example 125, 6-((Z)-2-(3-((4aR,5R,7aR)-2-amino-5-(trifluoromethyl)-4a,5,7,7a-tetrahydro-4H-furo[3,4-d][1,3]thiazin-7a-yl)-4-fluorophenyl)-1-fluorovinyl)nicotinonitrile]	–	–	–
25.8	0.405	0.000906	1.78	COc1nc(N2C[C@H]3CSC(N)=N[C@@]3(c3cc(/C=C(\F)c4ccc(C#N)cn4)ccc3F)C2)nc(C)c1F [Example 130, 6-((Z)-2-(3-((4aR,7aS)-2-amino-6-(5-fluoro-4-methoxy-6-methylpyrimidin-2-yl)-4,4a,5,6,7,7a-hexahydropyrrolo[3,4-d][1,3]thiazin-7a-yl)-4-fluorophenyl)-1-fluorovinyl)nicotinonitrile]	–	–	–
105	9.45	0.0265	510	C#CCOc1cnc(/C(F)=C/c2ccc(F)c([C@]34CN(C(=O)CC(F)(F)F)C[C@H]3CSC(N)=N4)c2)cn1 [Example 119, 1-((4aR,7aS)-2-amino-7a-(2-fluoro-5-((Z)-2-fluoro-2-(5-(prop-2-yn-1-yloxy)pyrazin-2-yl)vinyl)phenyl)-4a,5,7,7a-tetrahydropyrrolo[3,4-d][1,3]thiazin-6(4H)-yl)-3,3,3-trifluoropropan-1-one]	–	–	–
> 400	622	2.03	6630	COc1cnc(/C(F)=C/c2ccc(F)c([C@]34CO[C@H](C(F)(F)F)[C@H]3CSC(N)=N4)c2)cn1 [Example 136, (4aS,5S,7aS)-7a-(2-fluoro-5-((Z)-2-fluoro-2-(5-methoxypyrazin-2-yl)vinyl)phenyl)-5-(trifluoromethyl)-4a,5,7,7a-tetrahydro-4H-furo[3,4-d][1,3]thiazin-2-amine]	–	–	–

Structure (SMILES)	IC50 [1] [µM]	IC50 [2] [nM]	IC50 [3, 6] [µM]	IC50 [4] [nM]	IC50 [3, 7] [µM]	% Aβ reduction in rat CSF at 10 mpk [5] [%]	% Aβ reduction in rat brain at 10 mpk [5] [%]
N#Cc1cnc(/C(F)=C/c2ccc(F)c([C@]34CO[C@H](C(F)(F)F)[C@H]3CSC(N)=N4)c2)cn1 [Example 128, 5-((Z)-2-(3-((4aS,5S,7aS)-2-amino-5-(trifluoromethyl)-4a,5,7,7a-tetrahydro-4H-furo[3,4-d][1,3]thiazin-7a-yl)-4-fluorophenyl)-1-fluorovinyl)pyrazine-2-carbonitrile]	418	15.3	–	341	0.00364	79	77
NC1=N[C@]2(c3cc(/C=C(\F)c4ccc(Cl)cn4)ccc3F)CN(c3ncc(F)cn3)C[C@@H]2CS1 [Example 100, (4aS,7aR)-7a-(5-((Z)-2-(5-chloropyridin-2-yl)-2-fluorovinyl)-2-fluorophenyl)-6-(5-fluoropyrimidin-2-yl)-4,4a,5,6,7,7a-hexahydropyrrolo[3,4-d][1,3]thiazin-2-amine]	544	847	–	495	1.25	–	–
C#CCOc1cnc(/C(F)=C/c2ccc(F)c([C@]34CN(C(=O)OCC)C[C@H]3CSC(N)=N4)c2)cn1 [Example 123, (4aR,7aS)-ethyl 2-amino-7a-(2-fluoro-5-((Z)-2-fluoro-2-(5-(prop-2-yn-1-yloxy)pyrazin-2-yl)vinyl)phenyl)-4a,5,7,7a-tetrahydropyrrolo[3,4-d][1,3]thiazine-6(4H)-carboxylate]	36.5	4.5	–	214	0.00478	–	–
C#CCOc1cnc(/C(F)=C/c2ccc(F)c([C@]34CN(C(=O)OC)C[C@H]3CSC(N)=N4)c2)cn1 [Example 121, (4aR,7aS)-methyl 2-amino-7a-(2-fluoro-5-((Z)-2-fluoro-2-(5-(prop-2-yn-1-yloxy)pyrazin-2-yl)vinyl)phenyl)-4a,5,7,7a-tetrahydropyrrolo[3,4-d][1,3]thiazine-6(4H)-carboxylate]	47.9	1.59	–	258	0.00679	–	–
